Assay results reported in paper PMC12314892, “Macrocyclic Phage Display for Identification of Selective Protease Substrates” (Journal of the American Chemical Society, 2025).
*1 amine or outer side, *2 acyl side, *3 side chain or, on linkers, in order; H or OH if unused. Where a SMILES comes first, the peptide text is derived from it. Bridges are numbered along the chain shown (N, C = ends). The star is where a group is joined. X1 = NC(=O)Cc1cc(=O)oc2cc(NC(=O)[C@@H]3CCCN3C(=O)Cn3nc(C[*:1])cc3C[*:2])ccc12; X2 = NC(=O)Cc1cc(=O)oc2cc(NC(=O)[C@@H]3CCCN3C(=O)Cn3nc(C[*:2])cc3C[*:1])ccc12; AMC = Cc1cc(=O)oc2cc(N*)ccc12; Cbz = O=C(OCc1ccccc1)*

Assays:
[1] = target: T1, Recombinant Human Prolyl Oligopeptidase/PREP (Homo sapiens, UniProt P48147); test: Kinetic evaluation of substrates; type: biochemical; conditions: for SI (selectivity index, coefficient of the proteases kcat/Km), FAPα vs PREP: kcat/KM FAPα over kcat/KM PREP
T1 construct: purchased R&D Systems 4308-SE-010
T1 sequence (P48147 1-710): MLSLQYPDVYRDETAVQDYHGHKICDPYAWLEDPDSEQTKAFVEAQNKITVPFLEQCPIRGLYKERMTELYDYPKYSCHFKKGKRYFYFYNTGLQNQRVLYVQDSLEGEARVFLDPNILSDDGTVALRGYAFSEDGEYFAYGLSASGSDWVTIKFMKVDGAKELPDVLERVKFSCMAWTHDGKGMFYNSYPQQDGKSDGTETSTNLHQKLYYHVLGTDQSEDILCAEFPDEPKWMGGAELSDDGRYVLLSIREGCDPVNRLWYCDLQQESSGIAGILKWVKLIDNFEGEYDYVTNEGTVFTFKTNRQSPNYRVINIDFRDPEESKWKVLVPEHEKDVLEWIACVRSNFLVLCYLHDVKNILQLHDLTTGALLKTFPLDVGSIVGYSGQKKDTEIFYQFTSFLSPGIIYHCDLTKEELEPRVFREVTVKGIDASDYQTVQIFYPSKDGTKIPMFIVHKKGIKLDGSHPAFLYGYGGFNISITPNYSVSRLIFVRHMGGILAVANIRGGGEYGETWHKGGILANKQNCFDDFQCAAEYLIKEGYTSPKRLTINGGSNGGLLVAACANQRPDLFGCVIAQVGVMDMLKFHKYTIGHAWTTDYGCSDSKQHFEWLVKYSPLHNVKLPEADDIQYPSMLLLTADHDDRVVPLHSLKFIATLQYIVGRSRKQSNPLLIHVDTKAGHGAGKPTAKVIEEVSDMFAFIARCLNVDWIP
Method: (§1) Fluorogenic Substrate Cleavage Assay
(§2) The following proteases were used for the activity assay: Recombinant Human FAPα Protein, CF (R&D Systems, Catalog No.: 3715-SE-010), Recombinant Human Prolyl Oligopeptidase/PREP Protein, CF (R&D Systems, Catalog No.: 4308-SE-010). Recombinant Human DPP9 Protein, CF (R&D Systems, Catalog No.: 5419-SE-010). Recombinant Human DPP4 Protein (Sino Biological, Catalog No.: 10688-HNCH-10). The buffers used for the activity assay were: FAPα - 50 mM Tris, 1 M NaCl, 1 mg/mL BSA, pH 7.5, PREP- 25 mM Tris, 250 mM NaCl, 2.5 mM DTT, pH 7.5 (DTT was freshly added immediately before use), DPP9- 25 mM Tris, pH 7.5, DPP4- 25 mM Tris, pH
(§3) 7.5. The following commercial substrates were used: zGP-AMC (Bachem,Catalog No.: […]
(§4) conducted in Greiner Bio-One black microplates of 384 wells and polystyrene F-bottom (Catalog No.: 784076). All compounds were dissolved in DMSO at a concentration of 10 mM and then diluted into the respective buffer to the desired final concentration. The protease was added to the specified concentration before the fluorescence measurements. For fluorescence measurements, 2 μL of substrate was further diluted into 6 μL of buffer, followed by addition of 2 μL of enzyme in buffer. For no enzyme controls 2 μL of substrate was diluted into 8 μL of buffer.
(§5) The fluorescence was measured using a Cytation 3 plate reader (BioTek). All experiments have at least three technical replicates. All assays were conducted at 37°C for a minimum of 90 min, unless otherwise noted. Fluorescence measurements were performed at ex/em, 355/460 nm for ACC substrates. The substrates velocity was quantified by calculating the slope of the linear phase of the reaction as relative fluorescence units (RFU) per min.
(§6) Kinetic evaluation of substrates
To order to determine the kcat/KM, the previously indicated proteases were tested under their corresponding buffer conditions. Substrates were serially diluted in water, and 2 µL of each dilution was added to 6 µL of assay buffer in a 384-well plate. The plate was briefly centrifuged to ensure proper mixing and to eliminate air bubbles. Fluorescence measurements were initiated by adding 2 µL of the protease solution (prepared in activity buffer) to each well, yielding a final volume of 10 µL. Reactions were monitored at 37 °C for 60 minutes using a plate reader set to excitation/emission wavelengths of 355/460 nm. Control wells without enzyme contained 8 µL of assay buffer, instead of enzyme, and 2 µL of substrate. All measurements were performed in at least triplicate. The initial linear portion of each fluorescence progress curve was used to calculate initial reaction velocities (RFU/min). Calibration curves using free AMC were generated under the corresponding buffer and assay conditions to allow extrapolation of RFU values to µM concentrations. Michaelis-Menten kinetic parameters K M, kcat and kcat/,KM were determined using […]
GraphPad Prism version 10.4.1. […]
determined due to poor model fit. […]

Recombinant Human DPP9 = target: T2, Recombinant Human DPP9 (Homo sapiens, UniProt Q86TI2); test: Kinetic evaluation of substrates; type: biochemical; conditions: for SI (selectivity index, coefficient of the proteases kcat/Km), FAPα vs DPP9: kcat/KM FAPα over kcat/KM DPP9
T2 construct: purchased R&D Systems 5419-SE-010
Method: as §1, §2, §3, §4, §5, §6
To order to determine the kcat/KM, the previously indicated proteases were tested under their corresponding buffer conditions. Substrates were serially diluted in water, and 2 µL of each dilution was added to 6 µL of assay buffer in a 384-well plate. The plate was briefly centrifuged to ensure proper mixing and to eliminate air bubbles. Fluorescence measurements were initiated by adding 2 µL of the protease solution (prepared in activity buffer) to each well, yielding a final volume of 10 µL. Reactions were monitored at 37 °C for 60 minutes using a plate reader set to excitation/emission wavelengths of 355/460 nm. Control wells without enzyme contained 8 µL of assay buffer, instead of enzyme, and 2 µL of substrate. All measurements were performed in at least triplicate. The initial linear portion of each fluorescence progress curve was used to calculate initial reaction velocities (RFU/min). Calibration curves using free AMC were generated under the corresponding buffer and assay conditions to allow extrapolation of RFU values to µM concentrations. Michaelis-Menten kinetic parameters K M, kcat and kcat/,KM were determined using GraphPad Prism version 10.4.1. In some cases, KM, kcat or kcat/,KM values could not be reliably determined due to poor model fit. […]

[2] = 6 nM DPP9, 37 °C, 60 min, Michaelis-Menten fit, triplicates
[3] = 3 nM PREP, 37 °C, 60 min, Michaelis-Menten fit, triplicates

T2 sequence (Q86TI2 whole entry): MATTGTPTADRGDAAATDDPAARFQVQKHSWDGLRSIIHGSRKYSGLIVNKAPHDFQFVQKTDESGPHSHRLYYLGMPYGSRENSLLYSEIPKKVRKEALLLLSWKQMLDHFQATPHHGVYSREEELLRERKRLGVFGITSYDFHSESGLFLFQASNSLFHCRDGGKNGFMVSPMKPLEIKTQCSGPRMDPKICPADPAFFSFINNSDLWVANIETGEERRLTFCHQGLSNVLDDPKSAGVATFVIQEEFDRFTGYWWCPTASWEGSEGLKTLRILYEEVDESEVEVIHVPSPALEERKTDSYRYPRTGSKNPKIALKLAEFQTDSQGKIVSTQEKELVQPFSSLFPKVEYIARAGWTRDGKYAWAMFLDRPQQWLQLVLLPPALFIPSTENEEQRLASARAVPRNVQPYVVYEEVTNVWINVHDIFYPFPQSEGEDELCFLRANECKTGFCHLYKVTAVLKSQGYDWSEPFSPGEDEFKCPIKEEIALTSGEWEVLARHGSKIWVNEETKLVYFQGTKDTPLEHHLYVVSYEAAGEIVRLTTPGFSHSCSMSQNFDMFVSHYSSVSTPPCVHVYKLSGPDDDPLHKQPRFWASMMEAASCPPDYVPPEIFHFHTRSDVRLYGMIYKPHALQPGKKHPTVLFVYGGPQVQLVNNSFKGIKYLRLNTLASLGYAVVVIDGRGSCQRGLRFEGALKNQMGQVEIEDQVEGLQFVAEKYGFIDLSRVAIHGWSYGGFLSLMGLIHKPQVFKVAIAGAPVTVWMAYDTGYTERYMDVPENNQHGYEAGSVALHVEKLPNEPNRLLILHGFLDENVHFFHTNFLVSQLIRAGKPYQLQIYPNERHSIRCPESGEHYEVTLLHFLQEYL

In the case of `CC(C)C[C@@H]1NC(=O)[C@H](CC(N)=O)NC(=O)[C@H](CCC(N)=O)NC(=O)[C@H](Cc2ccccc2)NC(=O)[C@H](CO)NC(=O)[C@H](C(C)C)NC(=O)[C@@H](N)CSCc2cc(nn2CC(=O)N2CCC[C@H]2C(=O)Nc2ccc3c(CC(N)=O)cc(=O)oc3c2)CSC[C@@H](C(=O)NCC(N)=O)NC(=O)[C@H](CC(=O)O)NC1=O` [FAP-33.2] (H-CVSFQNLDCG-NH2; linker 1-9 via X2; N-terminus assumed), the “SI (selectivity index, coefficient of the proteases kcat/Km), FAPα vs PREP” value [1] is reported as “FAPα >>>PREP” and the “SI (selectivity index, coefficient of the proteases kcat/Km), FAPα vs DPP9” value (Recombinant Human DPP9) is reported as “FAPα >>>DPP9”.

`Cc1cc(=O)oc2cc(NC(=O)[C@@H]3CCCN3C(=O)CN)ccc12` [GP-AMC] (H-Gly-Pro-{AMC}) was tested, and the “SI (selectivity index, coefficient of the proteases kcat/Km), DPP4 vs PREP” value ([1]; kcat/KM DPP4 over kcat/KM PREP) was “DPP4>>>PREP”, the Km (Recombinant Human DPP9; 6 nM DPP9, 25 mM Tris, pH 7.5, 37 °C, 60 min, Michaelis-Menten fit, triplicates, ± SD) was 61 ± 11 µM and the kcat (Recombinant Human DPP9; [2]) was 0.21 s⁻¹. The kcat/KM (Recombinant Human DPP9; [2]) was 3455 M⁻¹ s⁻¹ and the “SI (selectivity index, coefficient of the proteases kcat/Km), DPP4 vs DPP9” value (Recombinant Human DPP9; kcat/KM DPP4 over kcat/KM DPP9) was 110.

Work on `Cc1cc(=O)oc2cc(NC(=O)[C@@H]3CCCN3C(=O)CNC(=O)OCc3ccccc3)ccc12` [zGP-AMC] (Cbz-Gly-Pro-{AMC}) yielded a Km ([1]; 3 nM PREP, 25 mM Tris, 250 mM NaCl, 2.5 mM DTT, pH 7.5, 37 °C, 60 min, triplicates, ± SD, FAP33.2 and FAP33.2A6 showed substrate inhibition) of 161 ± 91 µM, a kcat [1, 3] of 113.05 s⁻¹ and a kcat/KM [1, 3] of 633723 M⁻¹ s⁻¹. The “SI (selectivity index, coefficient of the proteases kcat/Km), FAPα vs PREP” value [1] was 0.24.

`CC(C)[C@@H]1NC(=O)[C@@H](N)CSCc2cc(n(CC(=O)N3CCC[C@H]3C(=O)Nc3ccc4c(CC(N)=O)cc(=O)oc4c3)n2)CSC[C@@H](C(=O)NCC(N)=O)NC(=O)[C@H](CC(=O)O)NC(=O)[C@H](C)NC(=O)[C@H](CC(N)=O)NC(=O)[C@H](CCC(N)=O)NC(=O)[C@H](Cc2ccccc2)NC(=O)[C@H](CO)NC1=O` [FAP-33.2A6] (H-CVSFQNADCG-NH2; linker 1-9 via X1; N-terminus assumed) was tested, and the Ki ([1]; 3 nM PREP, substrate inhibition, 37 °C) was 34.4 µM, the “SI (selectivity index, coefficient of the proteases kcat/Km), FAPα vs PREP” value [1] was “FAPα >>>PREP” and the “SI (selectivity index, coefficient of the proteases kcat/Km), FAPα vs DPP9” value (Recombinant Human DPP9) was “FAPα >>>DPP9”.
